{
  "source": "patent US6586473B1",
  "about": "“Topical drug delivery composition and method” (Medicis Pharmaceutical Corporation, priority 1989, dated 2003)",
  "origin": "cited, not measured here",
  "system": "photoaged skin",
  "data": [
    {"compound": "CC1=C(/C=C/C(C)=C/C=C/C(C)=C/C(=O)O)C(C)(C)CCC1", "note": "[tretinoin, all trans-retinoic acid]", "values": [
      {"measurement": "effects of photoaging (wrinkling, sallowness, roughness, mottled pigmentation)", "setting": "0.1% cream daily for sixteen weeks", "result": "can improve the effects of photoaging"},
      {"measurement": "dermatitis as a result of treatment", "setting": "0.1% tretinoin cream, topical", "result": "most patients experience dermatitis"},
      {"measurement": "duration of initial dermatitis (xerosis, peeling, subjective irritation)", "setting": "0.1% tretinoin cream, topical", "result": "two weeks to three months"}
    ]}
  ]
}
